Tested on: LG0567-F671-PDC complex spheroids viability
Experiment: Anticancer human tumor LG0567-F671-PDC patient-derived lung adenocarcinoma cell line growth inhibition [RAS]
Settings: for IC50: curve of first compound; for viability, T/C: stronger effect = lower value; active = viability on the fitted dose curve at most 10% of control; inactive = the rest
In short: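 Multi-cell-type spheroids: tumor cells plus HUVEC endothelial cells and mesenchymal stem cells. RAS-pathway inhibitors were combined with targeted agents, each dosed in half-log steps down from clinical Cmax, or from 10 microM when Cmax was unknown.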

[1] = second compound 0.000949 µM, first compound 0.0316 µM
[2] = second compound 0.000949 µM, first compound 0.1 µM
[3] = second compound 0.000949 µM, first compound 0.316 µM
[4] = second compound 0.000949 µM, first compound 1 µM
[5] = second compound 0.000949 µM, first compound 3.16 µM
[6] = second compound 0.000949 µM, first compound 10 µM
[7] = second compound 0.003 µM, first compound 0.0316 µM
[8] = second compound 0.003 µM, first compound 0.1 µM
[9] = second compound 0.003 µM, first compound 0.316 µM
[10] = second compound 0.003 µM, first compound 1 µM
[11] = second compound 0.003 µM, first compound 3.16 µM
[12] = second compound 0.003 µM, first compound 10 µM
[13] = second compound 0.00949 µM, first compound 0.0316 µM
[14] = second compound 0.00949 µM, first compound 0.1 µM
[15] = second compound 0.00949 µM, first compound 0.316 µM
[16] = second compound 0.00949 µM, first compound 1 µM
[17] = second compound 0.00949 µM, first compound 3.16 µM
[18] = second compound 0.00949 µM, first compound 10 µM
[19] = second compound 0.03 µM, first compound 0.0316 µM
[20] = second compound 0.03 µM, first compound 0.1 µM
[21] = second compound 0.03 µM, first compound 0.316 µM
[22] = second compound 0.03 µM, first compound 1 µM
[23] = second compound 0.03 µM, first compound 3.16 µM
[24] = second compound 0.03 µM, first compound 10 µM
[25] = second compound 0.0949 µM, first compound 0.0316 µM
[26] = second compound 0.0949 µM, first compound 0.1 µM
[27] = second compound 0.0949 µM, first compound 0.316 µM
[28] = second compound 0.0949 µM, first compound 1 µM
[29] = second compound 0.0949 µM, first compound 3.16 µM
[30] = second compound 0.0949 µM, first compound 10 µM
[31] = second compound 0.3 µM, first compound 0.0316 µM
[32] = second compound 0.3 µM, first compound 0.1 µM
[33] = second compound 0.3 µM, first compound 0.316 µM
[34] = second compound 0.3 µM, first compound 1 µM
[35] = second compound 0.3 µM, first compound 3.16 µM
[36] = second compound 0.3 µM, first compound 10 µM
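Also: spheroids exposed to compound for seven days before readout.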
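For IC50 in this document: luminescence signal used as a proxy for viable cells.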

C[C@@H](NC(=O)c1ncnc(N)c1Cl)c1ncc(C(=O)Nc2cc(C(F)(F)F)c(Cl)cn2)s1 + CCn1c(-c2cccnc2C(C)OC)c2c3cc(ccc31)N1CCOC(CC(NC(=O)C(C(C)C)N(C)C(=O)C3(F)CCN(C(=O)C#CC(C)(C)N(C)C)CC3)C(=O)N3CCCC(N3)C(=O)OCC(C)(C)C2)C1
< 31.6 nM: IC50 (second compound 0.000949 µM) | IC50 (second compound 0.003 µM) | IC50 (second compound 0.00949 µM) | IC50 (second compound 0.03 µM) | IC50 (second compound 0.0949 µM) | IC50 (second compound 0.3 µM)
inactive: viability, T/C [1] 17.3% | viability, T/C [2] 19.9% | viability, T/C [3] 20.6% | viability, T/C [4] 24.5% | viability, T/C [5] 23.5% | viability, T/C [6] 23.9% | viability, T/C [7] 17.1% | viability, T/C [8] 17.9% | viability, T/C [9] 21.1% | viability, T/C [10] 21% | viability, T/C [11] 25.6% | viability, T/C [12] 23.6% | viability, T/C [13] 20.9% | viability, T/C [14] 18.6% | viability, T/C [15] 19.2% | viability, T/C [16] 22.4% | viability, T/C [17] 22.4% | viability, T/C [18] 24% | viability, T/C [19] 16.7% | viability, T/C [20] 17.1% | viability, T/C [21] 22.9% | viability, T/C [22] 20.3% | viability, T/C [23] 21.6% | viability, T/C [24] 22.2% | viability, T/C [25] 14.4% | viability, T/C [26] 15.5% | viability, T/C [27] 17.5% | viability, T/C [28] 19.6% | viability, T/C [29] 19.8% | viability, T/C [30] 21.8% | viability, T/C [31] 13% | viability, T/C [32] 14.8% | viability, T/C [33] 14.2% | viability, T/C [34] 17.2% | viability, T/C [35] 19.5% | viability, T/C [36] 19.1%

CC(C)n1nc(-c2ccc3oc(N)nc3c2)c2c(N)ncnc21 + CCn1c(-c2cccnc2C(C)OC)c2c3cc(ccc31)N1CCOC(CC(NC(=O)C(C(C)C)N(C)C(=O)C3(F)CCN(C(=O)C#CC(C)(C)N(C)C)CC3)C(=O)N3CCCC(N3)C(=O)OCC(C)(C)C2)C1
inactive: viability, T/C (second compound 0.000949 µM, first compound 0.000316 µM) 14.9% | viability, T/C (second compound 0.000949 µM, first compound 0.001 µM) 14.4% | viability, T/C (second compound 0.000949 µM, first compound 0.00316 µM) 12.2% | viability, T/C (second compound 0.000949 µM, first compound 0.01 µM) 9.49% | viability, T/C [1] 8.53% | viability, T/C [2] 14.7% | viability, T/C (second compound 0.003 µM, first compound 0.000316 µM) 15.6% | viability, T/C (second compound 0.003 µM, first compound 0.001 µM) 12.4% | viability, T/C (second compound 0.003 µM, first compound 0.00316 µM) 12.5% | viability, T/C (second compound 0.003 µM, first compound 0.01 µM) 10.2% | viability, T/C [7] 8.31% | viability, T/C [8] 13.6% | viability, T/C (second compound 0.00949 µM, first compound 0.000316 µM) 13.3% | viability, T/C (second compound 0.00949 µM, first compound 0.001 µM) 13.2% | viability, T/C (second compound 0.00949 µM, first compound 0.00316 µM) 13.3% | viability, T/C (second compound 0.00949 µM, first compound 0.01 µM) 10.2% | viability, T/C [13] 7.68% | viability, T/C [14] 12.6% | viability, T/C (second compound 0.03 µM, first compound 0.000316 µM) 12% | viability, T/C (second compound 0.03 µM, first compound 0.001 µM) 14% | viability, T/C (second compound 0.03 µM, first compound 0.00316 µM) 11% | viability, T/C (second compound 0.03 µM, first compound 0.01 µM) 9.46% | viability, T/C [19] 7.2% | viability, T/C [20] 11.5% | viability, T/C (second compound 0.0949 µM, first compound 0.000316 µM) 11.1%
active: viability, T/C (second compound 0.0949 µM, first compound 0.001 µM) 10.9% | viability, T/C (second compound 0.0949 µM, first compound 0.00316 µM) 9.2% | viability, T/C (second compound 0.0949 µM, first compound 0.01 µM) 7.52% | viability, T/C [25] 5.8% | viability, T/C [26] 10.4% | viability, T/C (second compound 0.3 µM, first compound 0.000316 µM) 9.46% | viability, T/C (second compound 0.3 µM, first compound 0.001 µM) 8.59% | viability, T/C (second compound 0.3 µM, first compound 0.00316 µM) 8.57% | viability, T/C (second compound 0.3 µM, first compound 0.01 µM) 7.61% | viability, T/C [31] 4.68% | viability, T/C [32] 8.47%
< 0.316 nM: IC50 (second compound 0.000949 µM) | IC50 (second compound 0.003 µM) | IC50 (second compound 0.00949 µM) | IC50 (second compound 0.03 µM) | IC50 (second compound 0.0949 µM) | IC50 (second compound 0.3 µM)

CC(=O)OC12COC1CC(O)C1(C)C(=O)C(O)C3=C(C)C(OC(=O)C(O)C(NC(=O)OC(C)(C)C)c4ccccc4)CC(O)(C(OC(=O)c4ccccc4)C21)C3(C)C (stereo unspecified) + CCn1c(-c2cc(N3CCN(C)CC3)cnc2C(C)OC)c2c3cc(ccc31)-c1csc(n1)CC(NC(=O)C1CC1C)C(=O)N1CCCC(N1)C(=O)OCC(C)(C)C2
active: viability, T/C [7] 8.54% | viability, T/C [8] 7.86% | viability, T/C [9] 8.72% | viability, T/C [10] 8.18% | viability, T/C [11] 8.46% | viability, T/C [12] 5.71% | viability, T/C [13] 5.57% | viability, T/C [14] 4.28% | viability, T/C [15] 4.95% | viability, T/C [16] 3.96% | viability, T/C [17] 4.72% | viability, T/C [18] 3.03% | viability, T/C [19] 3.18% | viability, T/C [20] 3.69% | viability, T/C [21] 3.02% | viability, T/C [22] 3.03% | viability, T/C [23] 2.9% | viability, T/C [24] 1.92% | viability, T/C [25] 2.46% | viability, T/C [26] 2.37% | viability, T/C [27] 2.22% | viability, T/C [28] 2.27% | viability, T/C [29] 2.34% | viability, T/C [30] 1.6% | viability, T/C [31] 2.92% | viability, T/C [32] 1.92% | viability, T/C [33] 1.85% | viability, T/C [34] 1.89% | viability, T/C [35] 2.06% | viability, T/C [36] 1.66%
< 31.6 nM: IC50 (second compound 0.000949 µM) | IC50 (second compound 0.003 µM) | IC50 (second compound 0.00949 µM) | IC50 (second compound 0.03 µM) | IC50 (second compound 0.0949 µM) | IC50 (second compound 0.3 µM)
inactive: viability, T/C [1] 17.3% | viability, T/C [2] 14.6% | viability, T/C [3] 16.6% | viability, T/C [4] 20.3% | viability, T/C [5] 21.7% | viability, T/C [6] 15.3%

From PubChem BioAssay AID2060889 (Molecular Pharmacology Branch, DTP, NCI, 2025)
